{
  "source": "patent US20040029774A1",
  "about": "“Composition and methods for the treatment of musculoskeletal disorders and collagen and elastin deficiencies” (priority 2002, published 2004)",
  "key": {"[1]": {"assay": "Solubility of rejuvenating ingredients in acidified deionized water mimicking the stomach", "method": "In order to determine the amount of rejuvenating-nutrient that may be completely dissolved in water under conditions similar to that of stomach, the following study was executed: Deionized water was heated to 98° F.-99° F. to mimic the temperature of the human body. Adjustment of pH of the water to 2.7-2.9 was accomplished using hydrochloric acid to effect acidic conditions of the human stomach. […] Water/joints products were placed in a heated water bath with continuous agitation. Solubility of various joints products was compared at 30 minutes, one hour and two hours.\nThe following data reflect the percentage of product solubilized compared to added concentration at 0 minutes: […]"}, "[2]": {"settings": "cited from earlier work"}},
  "data": [
    {"compound": "N[C@H]1C(O)O[C@H](CO)[C@@H](O)[C@@H]1O", "note": "(some centres unmarked) [GLUCOSAMINE, Glucosamine]", "values": [
      {"measurement": "% SOLUBILITY 2 HRS.", "setting": "[1]; 2 h, pH 2.7", "value": 30, "unit": "%"}
    ]},
    {"compound": "CS(C)(=O)=O", "note": "[MSM, Methyl-Sulfonyl-Methane]", "values": [
      {"measurement": "% SOLUBILITY 1 HR.", "setting": "[1]; 1 h, pH 2.7", "value": 20, "unit": "%"},
      {"measurement": "% SOLUBILITY 2 HRS.", "setting": "[1]; 2 h, pH 2.7", "value": 30, "unit": "%"}
    ]},
    {"compound": "N[C@H]1C(O)O[C@H](CO)[C@@H](O)[C@@H]1O.O=S(=O)(O)O", "note": "(some centres unmarked) [glucosamine sulfate]", "values": [
      {"measurement": "Clinical improvement of symptoms, persistence", "setting": "[2]; after discontinuation of oral administration", "value": "up to four weeks"},
      {"measurement": "Clinical improvement of symptoms, onset", "setting": "[2]; after oral administration", "value": "as early as one week"}
    ]},
    {"compound": "Chondroitin sulfate", "values": [
      {"measurement": "% SOLUBILITY 30 MINS.", "setting": "[1]; 10% concentration, water 98-99° F., pH 2.7-2.9", "value": 100, "unit": "%"},
      {"measurement": "% SOLUBILITY 30 MINS.", "setting": "[1]; 30% concentration, water 98-99° F., pH 2.7-2.9", "value": 100, "unit": "%"},
      {"measurement": "% SOLUBILITY 30 MINS.", "setting": "[1]; 50% concentration, water 98-99° F., pH 2.7-2.9", "value": 100, "unit": "%"},
      {"measurement": "soluble at 50% concentration", "setting": "[1]; 50% concentration, water 98-99° F., pH 2.7-2.9, time not given", "value": 100, "unit": "%"},
      {"measurement": "% SOLUBILITY 30 MINS.", "setting": "[1]; 70% concentration, water 98-99° F., pH 2.7-2.9", "value": 20, "unit": "%"},
      {"measurement": "% SOLUBILITY 1 HR.", "setting": "[1]; 70% concentration, water 98-99° F., pH 2.7-2.9, one hour", "value": 20, "unit": "%"},
      {"measurement": "% SOLUBILITY 2 HRS.", "setting": "[1]; 70% concentration, water 98-99° F., pH 2.7-2.9, two hours", "value": 20, "unit": "%"}
    ]},
    {"compound": "Gelatin", "values": [
      {"measurement": "% SOLUBILITY 1 HR.", "setting": "[1]; pH 2.7", "value": 10, "unit": "%"},
      {"measurement": "% SOLUBILITY 2 HRS.", "setting": "[1]; pH 2.7", "value": 15, "unit": "%"}
    ]}
  ]
}
